test system: ACHN; experiment: Cytotoxicity against human ACHN cells […] by MTT assay; format: functional, cell-based; details: not given

Row | Compound | IC50 [µM]
1 | COc1cc([C@@H]2c3cc4c(cc3[C@@H](NC(=O)c3cc(-c5ccc(F)cc5)on3)[C@H]3COC(=O)[C@H]23)OCO4)cc(OC)c1OC | 15.6
2 | COc1cc([C@@H]2c3cc4c(cc3[C@@H](NC(=O)c3cc(-c5ccc(Cl)c(Cl)c5)on3)[C@H]3COC(=O)[C@H]23)OCO4)cc(OC)c1OC | 16.8
3 | COc1cc([C@@H]2c3cc4c(cc3[C@@H](NC(=O)c3cc(-c5ccc(F)cc5)[nH]n3)[C@H]3COC(=O)[C@H]23)OCO4)cc(OC)c1OC | 18.3

test system: HT-29; experiment: Cytotoxicity against human HT-29 cells after 72 hrs by MTT assay; format: functional, cell-based; details: HT-29, 72 h

Row | Compound | IC50 [µM]
4 | COc1cc([C@@H]2c3cc4c(cc3[C@@H](NC(=O)c3cc(-c5ccc(F)cc5)on3)[C@H]3COC(=O)[C@H]23)OCO4)cc(OC)c1OC | 19.9
5 | COc1cc([C@@H]2c3cc4c(cc3[C@@H](NC(=O)c3cc(-c5ccc(Cl)c(Cl)c5)on3)[C@H]3COC(=O)[C@H]23)OCO4)cc(OC)c1OC | 11.2
6 | COc1cc([C@@H]2c3cc4c(cc3[C@@H](NC(=O)c3cc(-c5ccc(F)cc5)[nH]n3)[C@H]3COC(=O)[C@H]23)OCO4)cc(OC)c1OC | 26.3

test system: A549; experiment: Cytotoxicity against human A549 cells […] by MTT assay; format: functional, cell-based; details: not given

Row | Compound | IC50 [µM]
7 | COc1cc([C@@H]2c3cc4c(cc3[C@@H](NC(=O)c3cc(-c5ccc(F)cc5)on3)[C@H]3COC(=O)[C@H]23)OCO4)cc(OC)c1OC | 20.6
8 | COc1cc([C@@H]2c3cc4c(cc3[C@@H](NC(=O)c3cc(-c5ccc(Cl)c(Cl)c5)on3)[C@H]3COC(=O)[C@H]23)OCO4)cc(OC)c1OC | 31.1
9 | COc1cc([C@@H]2c3cc4c(cc3[C@@H](NC(=O)c3cc(-c5ccc(F)cc5)[nH]n3)[C@H]3COC(=O)[C@H]23)OCO4)cc(OC)c1OC | 21.2

test system: B16; experiment: Cytotoxicity against mouse B16 cells […] by MTT assay; format: functional, cell-based; details: not given

Row | Compound | IC50 [µM]
10 | COc1cc([C@@H]2c3cc4c(cc3[C@@H](NC(=O)c3cc(-c5ccc(F)cc5)on3)[C@H]3COC(=O)[C@H]23)OCO4)cc(OC)c1OC | 23.5
11 | COc1cc([C@@H]2c3cc4c(cc3[C@@H](NC(=O)c3cc(-c5ccc(Cl)c(Cl)c5)on3)[C@H]3COC(=O)[C@H]23)OCO4)cc(OC)c1OC | 22.7
12 | COc1cc([C@@H]2c3cc4c(cc3[C@@H](NC(=O)c3cc(-c5ccc(F)cc5)[nH]n3)[C@H]3COC(=O)[C@H]23)OCO4)cc(OC)c1OC | 26.1

test system: HeLa; experiment: Cytotoxicity against human HeLa cells […] by MTT assay; format: functional, cell-based; details: not given

Row | Compound | IC50 [µM]
13 | COc1cc([C@@H]2c3cc4c(cc3[C@@H](NC(=O)c3cc(-c5ccc(F)cc5)on3)[C@H]3COC(=O)[C@H]23)OCO4)cc(OC)c1OC | 16.6
14 | COc1cc([C@@H]2c3cc4c(cc3[C@@H](NC(=O)c3cc(-c5ccc(Cl)c(Cl)c5)on3)[C@H]3COC(=O)[C@H]23)OCO4)cc(OC)c1OC | 12.6
15 | COc1cc([C@@H]2c3cc4c(cc3[C@@H](NC(=O)c3cc(-c5ccc(F)cc5)[nH]n3)[C@H]3COC(=O)[C@H]23)OCO4)cc(OC)c1OC | 15.2

— ChEMBL document CHEMBL2311264, “Synthesis and anticancer activity of heteroaromatic linked 4β-amido podophyllotoxins as apoptotic inducing agents” (Bioorg Med Chem Lett, 2013)
